Data reported in paper PMC5218480 (PLoS ONE, 2017).

System: MV-4-11 cells
Assay: Gene expression microarray analysis (Affymetrix PrimeView) and GSEA
Assay type: cell-based, human
Set-up: RFU PODN (11730768_x_at) / Fold change /veh PODN (11730768_x_at) / RFU LINC00158 (11744669_a_at) / Fold change /veh LINC00158 (11744669_a_at) / RFU DUSP10 (11751237_a_at) / Fold change /veh DUSP10 (11751237_a_at) / RFU ID3 (11757404_x_at) / Fold change /veh ID3 (11757404_x_at) / RFU PLEKHG5 (11737974_s_at) / Fold change /veh PLEKHG5 (11737974_s_at) / RFU LRRC4B (11730491_at) / Fold change /veh LRRC4B (11730491_at) / RFU GIMAP4 (11747438_a_at) / Fold change /veh GIMAP4 (11747438_a_at) / RFU KRT8 (11758183_x_at) / Fold change /veh KRT8 (11758183_x_at) / RFU CNN1 (11734310_a_at) / Fold change /veh CNN1 (11734310_a_at) / RFU VPS37D (11726825_at) / Fold change /veh VPS37D (11726825_at) / RFU C10orf10 (11716522_x_at) / Fold change /veh C10orf10 (11716522_x_at) / RFU KIR2DL2 /// KIR2DL4 /// KIR2DL5A /// KIR2DL5B /// KIR2DS1 /// KIR2DS2 /// KIR2DS3 /// KIR2DS4 /// KIR3DL3 /// KIR3DL3 /// KIR3DS1 (11738374_at) / Fold change /veh KIR2DL2 /// KIR2DL4 /// KIR2DL5A /// KIR2DL5B /// KIR2DS1 /// KIR2DS2 /// KIR2DS3 /// KIR2DS4 /// KIR3DL3 /// KIR3DL3 /// KIR3DS1 (11738374_at) / RFU C1QL1 (11718748_at) / Fold change /veh C1QL1 (11718748_at) / RFU TMPRSS4 (11747572_a_at) / Fold change /veh TMPRSS4 (11747572_a_at) / RFU HAMP (11756126_x_at) / Fold change /veh HAMP (11756126_x_at) / RFU RNFT2 (11725882_a_at) / Fold change /veh RNFT2 (11725882_a_at) / RFU NR4A2 (11747474_a_at) / Fold change /veh NR4A2 (11747474_a_at) / RFU ABCC12 (11746883_a_at) / Fold change /veh ABCC12 (11746883_a_at) / RFU TMEM136 (11760407_x_at) / Fold change /veh TMEM136 (11760407_x_at) / RFU CLDN22 /// WWC2 (11732394_at) / Fold change /veh CLDN22 /// WWC2 (11732394_at) / RFU HLA-DPB1 (11760878_x_at) / Fold change /veh HLA-DPB1 (11760878_x_at) / RFU SPINT1 (11716480_a_at) / Fold change /veh SPINT1 (11716480_a_at) / RFU GAP43 (11754022_s_at) / Fold change /veh GAP43 (11754022_s_at) / RFU A4GNT (11735810_at) / Fold change /veh A4GNT (11735810_at) / RFU PRB3 (11715151_x_at) / Fold change /veh PRB3 (11715151_x_at) / RFU TUBB4B (11761932_at) / Fold change /veh TUBB4B (11761932_at) / RFU CAPN14 (11732068_a_at) / Fold change /veh CAPN14 (11732068_a_at) / RFU TMCC2 (11721928_a_at) / Fold change /veh TMCC2 (11721928_a_at) / RFU IRGQ (11745062_a_at) / Fold change /veh IRGQ (11745062_a_at) / RFU FAM174B (11720279_a_at) / Fold change /veh FAM174B (11720279_a_at) / RFU TMPRSS4 (11748680_a_at) / Fold change /veh TMPRSS4 (11748680_a_at) / RFU FAM212B (11763350_a_at) / Fold change /veh FAM212B (11763350_a_at) / RFU PLEKHG5 (11743358_a_at) / Fold change /veh PLEKHG5 (11743358_a_at) / RFU ZSCAN30 (11745921_a_at) / Fold change /veh ZSCAN30 (11745921_a_at) / RFU CMKLR1 (11741424_a_at) / Fold change /veh CMKLR1 (11741424_a_at) / RFU LOC101060620 /// MAPK8IP1 (11723275_at) / Fold change /veh LOC101060620 /// MAPK8IP1 (11723275_at) / RFU SPTSSB (11747773_x_at) / Fold change /veh SPTSSB (11747773_x_at) / RFU PRSS12 (11739890_at) / Fold change /veh PRSS12 (11739890_at) / RFU BIN1 (11741810_x_at) / Fold change /veh BIN1 (11741810_x_at) / RFU WNT11 (11732464_a_at) / Fold change /veh WNT11 (11732464_a_at) / RFU C10orf10 (11716521_a_at) / Fold change /veh C10orf10 (11716521_a_at) / RFU C5orf56 (11738089_at) / Fold change /veh C5orf56 (11738089_at) / RFU CYB561 (11721691_x_at) / Fold change /veh CYB561 (11721691_x_at) / RFU ANKRD19P (11752326_a_at) / Fold change /veh ANKRD19P (11752326_a_at) / RFU OR2T12 /// OR2T33 /// OR2T8 (11738714_s_at) / Fold change /veh OR2T12 /// OR2T33 /// OR2T8 (11738714_s_at) / RFU VCAN (11748164_a_at) / Fold change /veh VCAN (11748164_a_at) / RFU JSRP1 (11732532_at) / Fold change /veh JSRP1 (11732532_at) / RFU KRTAP10-11 (11738290_x_at) / Fold change /veh KRTAP10-11 (11738290_x_at) / RFU MYO3A (11730013_a_at) / Fold change /veh MYO3A (11730013_a_at) / RFU EBF3 (11725865_a_at) / Fold change /veh EBF3 (11725865_a_at) / RFU CAMK2N1 (11719241_x_at) / Fold change /veh CAMK2N1 (11719241_x_at) / RFU C5orf56 (11738088_a_at) / Fold change /veh C5orf56 (11738088_a_at) / RFU OLFML3 (11715873_a_at) / Fold change /veh OLFML3 (11715873_a_at) / RFU LOC100653217 /// NTM (11731650_a_at) / Fold change /veh LOC100653217 /// NTM (11731650_a_at) / RFU MAPK11 (11762145_a_at) / Fold change /veh MAPK11 (11762145_a_at) / RFU FIZ1 (11724087_x_at) / Fold change /veh FIZ1 (11724087_x_at) / RFU OASL (11726364_x_at) / Fold change /veh OASL (11726364_x_at) / RFU SOX15 (11748057_x_at) / Fold change /veh SOX15 (11748057_x_at) / RFU CD79A (11719716_a_at) / Fold change /veh CD79A (11719716_a_at) / RFU HIST1H1D (11736915_at) / Fold change /veh HIST1H1D (11736915_at) / RFU CASKIN2 (11723855_a_at) / Fold change /veh CASKIN2 (11723855_a_at) / RFU LOC730098 (11760151_x_at) / Fold change /veh LOC730098 (11760151_x_at) / RFU OR4N2 (11742367_at) / Fold change /veh OR4N2 (11742367_at) / RFU PRRT2 (11749266_a_at) / Fold change /veh PRRT2 (11749266_a_at) / RFU SNX32 (11753110_a_at) / Fold change /veh SNX32 (11753110_a_at) / RFU CDHR5 (11726645_a_at) / Fold change /veh CDHR5 (11726645_a_at) / RFU RCAN1 (11760418_a_at) / Fold change /veh RCAN1 (11760418_a_at) / RFU FAM167A (11723789_a_at) / Fold change /veh FAM167A (11723789_a_at) / RFU FAM26E (11764081_at) / Fold change /veh FAM26E (11764081_at) / RFU ISYNA1 (11749810_s_at) / Fold change /veh ISYNA1 (11749810_s_at) / RFU ACY1 (11761880_at) / Fold change /veh ACY1 (11761880_at) / RFU 11764098_at / Fold change /veh 11764098_at / RFU SAMD14 (11745864_x_at) / Fold change /veh SAMD14 (11745864_x_at) / RFU NPB (11741838_a_at) / Fold change /veh NPB (11741838_a_at) / RFU TMPRSS6 (11731388_a_at) / Fold change /veh TMPRSS6 (11731388_a_at) / RFU KRTAP10-2 (11738614_at) / Fold change /veh KRTAP10-2 (11738614_at) / RFU ARHGAP8 /// PRR5-ARHGAP8 (11727945_x_at) / Fold change /veh ARHGAP8 /// PRR5-ARHGAP8 (11727945_x_at) / RFU KRTAP5-7 /// NADSYN1 (11734609_at) / Fold change /veh KRTAP5-7 /// NADSYN1 (11734609_at) / RFU RASL12 (11751679_a_at) / Fold change /veh RASL12 (11751679_a_at) / RFU CDKN2B (11736163_a_at) / Fold change /veh CDKN2B (11736163_a_at) / RFU PRF1 (11729649_at) / Fold change /veh PRF1 (11729649_at) / RFU, ZNF638 /// ZNF638-IT1 / Fold change vs veh, ZNF638 /// ZNF638-IT1 / RFU, PANK3 / Fold change vs veh, PANK3 / RFU, SH3YL1 / Fold change vs veh, SH3YL1 / RFU, ZEB2 / Fold change vs veh, ZEB2 / RFU, NRIP1 / Fold change vs veh, NRIP1 / RFU, PTTG1IP / Fold change vs veh, PTTG1IP / RFU, CAPN2 / Fold change vs veh, CAPN2 / RFU, MED14 / Fold change vs veh, MED14 / RFU, SNORA58 / Fold change vs veh, SNORA58 / RFU, C1orf63 / Fold change vs veh, C1orf63 / RFU, LRRFIP1 / Fold change vs veh, LRRFIP1 / RFU, NDUFAF7 / Fold change vs veh, NDUFAF7 / RFU, SLC12A2 / Fold change vs veh, SLC12A2 / RFU, IBTK / Fold change vs veh, IBTK / RFU, ESF1 / Fold change vs veh, ESF1 / Fold change vs veh, TMEM50B / RFU, TAOK1 / Fold change vs veh, TAOK1 / RFU, ACBD3 / Fold change vs veh, ACBD3 / RFU, TMA16 / Fold change vs veh, TMA16 / RFU, RWDD3 / Fold change vs veh, RWDD3 / RFU, BCAT1 / Fold change vs veh, BCAT1 / RFU, EDEM3 / Fold change vs veh, EDEM3 / RFU, TMEM33 / Fold change vs veh, TMEM33 / RFU, WDR75 / Fold change vs veh, WDR75 / RFU, AHCTF1 / Fold change vs veh, AHCTF1 / RFU, TFRC / Fold change vs veh, TFRC / RFU, ZDHHC17 / Fold change vs veh, ZDHHC17 / RFU, NOM1 / Fold change vs veh, NOM1 / RFU, ARL8B / Fold change vs veh, ARL8B / RFU, ZBTB11 / Fold change vs veh, ZBTB11 / RFU, TAMM41 / Fold change vs veh, TAMM41 / RFU, KIAA1704 /// LOC100996395 / Fold change vs veh, KIAA1704 /// LOC100996395 / RFU, ING1 / Fold change vs veh, ING1 / RFU, TRMT61B / Fold change vs veh, TRMT61B / RFU, FUBP3 / Fold change vs veh, FUBP3 / RFU, TP53 / Fold change vs veh, TP53 / RFU, TNKS2 / Fold change vs veh, TNKS2 / RFU, ZFP14 / Fold change vs veh, ZFP14 / RFU, ACTR2 / Fold change vs veh, ACTR2 / RFU, PPP3R1 / Fold change vs veh, PPP3R1 / RFU, PIK3R1 / Fold change vs veh, PIK3R1 / RFU, HNRNPA1 / Fold change vs veh, HNRNPA1 / RFU, RNF170 / Fold change vs veh, RNF170 / RFU, ZNF28 / Fold change vs veh, ZNF28 / RFU, RNGTT / Fold change vs veh, RNGTT / RFU, OGT / Fold change vs veh, OGT / RFU, BRD1 / Fold change vs veh, BRD1 / RFU, MARS / Fold change vs veh, MARS / RFU, ZNF655 / Fold change vs veh, ZNF655 / RFU, FAHD1 / Fold change vs veh, FAHD1 / RFU, BDP1 / Fold change vs veh, BDP1 / RFU, LRRCC1 / Fold change vs veh, LRRCC1 / RFU, ARID1A / Fold change vs veh, ARID1A / RFU, ZNF146 / Fold change vs veh, ZNF146 / RFU, ZNF330 / Fold change vs veh, ZNF330 / RFU, GPN3 / Fold change vs veh, GPN3 / RFU, C9orf123 / Fold change vs veh, C9orf123 / RFU, N4BP2L2 / Fold change vs veh, N4BP2L2 / RFU, ARFIP1 / Fold change vs veh, ARFIP1 / RFU, FAM179B / Fold change vs veh, FAM179B / RFU, BCL10 / Fold change vs veh, BCL10 / RFU, UHRF1BP1L / Fold change vs veh, UHRF1BP1L / RFU, BET1 / Fold change vs veh, BET1 / RFU, CNOT2 / Fold change vs veh, CNOT2 / RFU, ZNF268 / Fold change vs veh, ZNF268 / Fold change vs veh, ZNF507 / RFU, DGCR2 / Fold change vs veh, DGCR2 / RFU, WDSUB1 / Fold change vs veh, WDSUB1 / Fold change vs veh, HSP90B1 /// MIR3652 / RFU, ADSS / Fold change vs veh, ADSS / RFU, GK / Fold change vs veh, GK / RFU, ZNF148 / Fold change vs veh, ZNF148 / RFU, TAF9 / Fold change vs veh, TAF9 / RFU, SLC1A5 / Fold change vs veh, SLC1A5 / RFU, SLMO2 / Fold change vs veh, SLMO2 / RFU, ABCC4 / Fold change vs veh, ABCC4 / RFU, LOC101060439 /// RAP1B / Fold change vs veh, LOC101060439 /// RAP1B / RFU, RFX7 / Fold change vs veh, RFX7 / RFU, GTPBP10 / Fold change vs veh, GTPBP10 / RFU, CNEP1R1 / Fold change vs veh, CNEP1R1 / RFU, BIVM-ERCC5 /// ERCC5 / Fold change vs veh, BIVM-ERCC5 /// ERCC5 / RFU, ILF3 / Fold change vs veh, ILF3 / RFU 11762660_at / Fold change /veh 11762660_at / RFU VCAN (11757783_s_at) / Fold change /veh VCAN (11757783_s_at) / RFU DDX43 (11728927_at) / Fold change /veh DDX43 (11728927_at) / RFU KRT8 (11758188_x_at) / Fold change /veh KRT8 (11758188_x_at) / RFU NKD1 (11759106_at) / Fold change /veh NKD1 (11759106_at) / RFU SRD5A1 (11742802_a_at) / Fold change /veh SRD5A1 (11742802_a_at) / RFU TPSAB1 /// TPSB2 (11721975_s_at) / Fold change /veh TPSAB1 /// TPSB2 (11721975_s_at) / RFU GSTM3 (11746129_a_at) / Fold change /veh GSTM3 (11746129_a_at) / RFU IL23R (11737362_x_at) / Fold change /veh IL23R (11737362_x_at) / RFU TMEM51 (11727254_a_at) / Fold change /veh TMEM51 (11727254_a_at) / RFU PIWIL2 (11732686_x_at) / Fold change /veh PIWIL2 (11732686_x_at) / RFU ORM1 (11744905_x_at) / Fold change /veh ORM1 (11744905_x_at) / RFU CCDC152 (11743942_at) / Fold change /veh CCDC152 (11743942_at) / RFU ECM1 (11717891_a_at) / Fold change /veh ECM1 (11717891_a_at) / RFU IL23R (11748794_a_at) / Fold change /veh IL23R (11748794_a_at) / RFU TNFAIP8L3 (11732012_x_at) / Fold change /veh TNFAIP8L3 (11732012_x_at) / RFU MBOAT4 (11741988_at) / Fold change /veh MBOAT4 (11741988_at) / RFU 11764193_at / Fold change /veh 11764193_at / RFU TMEM53 (11763286_at) / Fold change /veh TMEM53 (11763286_at) / RFU MAGEB2 (11727129_at) / Fold change /veh MAGEB2 (11727129_at) / RFU TMEM200A (11744735_a_at) / Fold change /veh TMEM200A (11744735_a_at) / RFU CCDC152 (11751479_a_at) / Fold change /veh CCDC152 (11751479_a_at) / RFU FAM211A (11726209_a_at) / Fold change /veh FAM211A (11726209_a_at) / RFU RGS16 (11746705_a_at) / Fold change /veh RGS16 (11746705_a_at) / RFU VCAN (11755009_s_at) / Fold change /veh VCAN (11755009_s_at) / RFU RHOB (11743442_s_at) / Fold change /veh RHOB (11743442_s_at) / RFU RGS16 (11720943_a_at) / Fold change /veh RGS16 (11720943_a_at) / RFU RGS16 (11720944_at) / Fold change /veh RGS16 (11720944_at) / RFU, VPS4B / Fold change vs veh, VPS4B / RFU, CREB1 / Fold change vs veh, CREB1 / RFU, DNAJC13 / Fold change vs veh, DNAJC13 / RFU, GNAQ / Fold change vs veh, GNAQ / RFU, CDK5R1 / Fold change vs veh, CDK5R1 / RFU, ZRANB3 / Fold change vs veh, ZRANB3 / RFU, CUL4A / Fold change vs veh, CUL4A / RFU, CCNY / Fold change vs veh, CCNY / RFU, UFL1 / Fold change vs veh, UFL1 / RFU, COG3 / Fold change vs veh, COG3 / RFU, DIAPH2 / Fold change vs veh, DIAPH2 / RFU, SKA2 / Fold change vs veh, SKA2 / RFU, AFF3 / Fold change vs veh, AFF3 / RFU, LMF1 / Fold change vs veh, LMF1 / RFU, IPO11 / Fold change vs veh, IPO11 / RFU, DFFB / Fold change vs veh, DFFB / RFU, FOXP1 / Fold change vs veh, FOXP1 / RFU, CARD8 / Fold change vs veh, CARD8 / RFU, STRN3 / Fold change vs veh, STRN3 / RFU, ADK / Fold change vs veh, ADK / RFU, RASSF2 / Fold change vs veh, RASSF2 / RFU, WIPF1 / Fold change vs veh, WIPF1 / RFU, LARP1B / Fold change vs veh, LARP1B / RFU, RASA1 / Fold change vs veh, RASA1 / RFU, RB1 / Fold change vs veh, RB1 / RFU, PPFIA1 / Fold change vs veh, PPFIA1 / RFU, MAT2A / Fold change vs veh, MAT2A / RFU, CCT5 / Fold change vs veh, CCT5 / RFU, WDR92 / Fold change vs veh, WDR92 / RFU, CUX1 / Fold change vs veh, CUX1 / RFU, TTC7A / Fold change vs veh, TTC7A / RFU, TMEM135 / Fold change vs veh, TMEM135 / RFU, DEPTOR / Fold change vs veh, DEPTOR / RFU, CPM / Fold change vs veh, CPM / RFU, DNAJB6 / Fold change vs veh, DNAJB6 / RFU, CACNA2D3 / Fold change vs veh, CACNA2D3 / RFU, DTX4 / Fold change vs veh, DTX4 / RFU, TFCP2 / Fold change vs veh, TFCP2 / RFU, GMCL1 /// GMCL1P1 / Fold change vs veh, GMCL1 /// GMCL1P1 / RFU, AEBP2 / Fold change vs veh, AEBP2 / RFU, SNHG1 /// SNORD22 /// SNORD25 /// SNORD26 /// SNORD27 /// SNORD28 /// SNORD29 /// SNORD31 / Fold change vs veh, SNHG1 /// SNORD22 /// SNORD25 /// SNORD26 /// SNORD27 /// SNORD28 /// SNORD29 /// SNORD31 / Fold change (Aza/veh), C12orf56 (ProbeSet 11735607_a_at) / Fold change (ACY-1035/veh), C12orf56 (ProbeSet 11735607_a_at) / Fold change (Aza/veh), FGFR1OP (ProbeSet 11751329_s_at) / Fold change (ACY-1035/veh), FGFR1OP (ProbeSet 11751329_s_at) / Fold change (Aza/veh), VPS36 (ProbeSet 11739960_a_at) / Fold change (ACY-1035/veh), VPS36 (ProbeSet 11739960_a_at) / RFU SYPL1 (11715823_x_at) / Fold change /veh SYPL1 (11715823_x_at) / RFU IGFBP7 (11715501_s_at) / Fold change /veh IGFBP7 (11715501_s_at) / RFU REEP3 (11722064_at) / Fold change /veh REEP3 (11722064_at) / RFU IGLL1 (11728026_x_at) / Fold change /veh IGLL1 (11728026_x_at): dose or concentration left out as unconfirmed
Details: ProbeSet 11755159_a_at; LIST D

How did the “Fold change vs veh, COG3” value turn out when `Nc1ncn([C@@H]2O[C@H](CO)[C@@H](O)[C@H]2O)c(=O)n1` [azacitidine] was run?
Its value is 0.82.
